# Results from ChEMBL document CHEMBL4257449, “New N-(2-phenyl-4-oxo-1,3-thiazolidin-3-yl)-1,2-benzothiazole-3-carboxamides and acetamides as antimicrobial agents” (2017).
# Columns and labels:
# [1] = tested on: Micrococcus flavus; test: Antibacterial activity against Micrococcus flavus ATCC 10240 after 24 hrs by microdilution method; assay type: functional; details: ATCC 10240, 24 h
# [2] = tested on: Aspergillus fumigatus; test: Antifungal activity against Aspergillus fumigatus after 72 hrs by serial dilution method; assay type: functional
# [3] = tested on: Talaromyces funiculosus; test: Fungicidal activity against Penicillium funiculosum ATCC 36839 incubated for 72 hrs followed by serial sub-cultivation for 72 hrs and measured after 72 hrs by serial dilution method; assay type: functional
# [4] = tested on: Pseudomonas aeruginosa; test: Bactericidal activity against Pseudomonas aeruginosa ATCC 27853 incubated for 24 hrs followed by serial sub-cultivation and measured after 24 hrs by microdilution method; assay type: functional
# [5] = tested on: Bacillus cereus; test: Bactericidal activity against Bacillus cereus incubated for 24 hrs followed by serial sub-cultivation and measured after 24 hrs by microdilution method; assay type: functional
# [6] = tested on: Aspergillus versicolor; test: Fungicidal activity against Aspergillus versicolor ATCC 11730 incubated for 72 hrs followed by serial sub-cultivation for 72 hrs and measured after 72 hrs by serial dilution method; assay type: functional
# [7] = tested on: Pseudomonas aeruginosa; test: Antibacterial activity against Pseudomonas aeruginosa ATCC 27853 after 24 hrs by microdilution method; assay type: functional; details: ATCC 27853, 24 h
# [8] = tested on: Aspergillus fumigatus; test: Fungicidal activity against Aspergillus fumigatus incubated for 72 hrs followed by serial sub-cultivation for 72 hrs and measured after 72 hrs by serial dilution method; assay type: functional
# [9] = tested on: Salmonella typhimurium; test: Bactericidal activity against Salmonella typhimurium ATCC 13311 incubated for 24 hrs followed by serial sub-cultivation and measured after 24 hrs by microdilution method; assay type: functional, Salmonella enterica subsp. enterica serovar Typhimurium
# [10] = tested on: Aspergillus ochraceus; test: Antifungal activity against Aspergillus ochraceus ATCC 12066 after 72 hrs by serial dilution method; assay type: functional; details: ATCC 12066, 72 h
# [11] = tested on: Aspergillus niger; test: Fungicidal activity against Aspergillus niger ATCC 6275 incubated for 72 hrs followed by serial sub-cultivation for 72 hrs and measured after 72 hrs by serial dilution method; assay type: functional
# [12] = tested on: Talaromyces funiculosus; test: Antifungal activity against Penicillium funiculosum ATCC 36839 after 72 hrs by serial dilution method; assay type: functional; details: ATCC 36839, 72 h
# [13] = tested on: Micrococcus flavus; test: Bactericidal activity against Micrococcus flavus ATCC 10240 incubated for 24 hrs followed by serial sub-cultivation and measured after 24 hrs by microdilution method; assay type: functional
# [14] = tested on: Aspergillus niger; test: Antifungal activity against Aspergillus niger ATCC 6275 after 72 hrs by serial dilution method; assay type: functional; details: ATCC 6275, 72 h
# [15] = tested on: Listeria monocytogenes; test: Bactericidal activity against Listeria monocytogenes NCTC 7973 incubated for 24 hrs followed by serial sub-cultivation and measured after 24 hrs by microdilution method; assay type: functional
# [16] = tested on: Penicillium ochrochloron; test: Antifungal activity against Penicillium ochrochloron ATCC 9112 after 72 hrs by serial dilution method; assay type: functional; details: ATCC 9112, 72 h
# [17] = tested on: Penicillium ochrochloron; test: Fungicidal activity against Penicillium ochrochloron ATCC 9112 incubated for 72 hrs followed by serial sub-cultivation for 72 hrs and measured after 72 hrs by serial dilution method; assay type: functional
# [18] = tested on: Aspergillus ochraceus; test: Fungicidal activity against Aspergillus ochraceus ATCC 12066 incubated for 72 hrs followed by serial sub-cultivation for 72 hrs and measured after 72 hrs by serial dilution method; assay type: functional
# [19] = tested on: Enterobacter cloacae; test: Bactericidal activity against Enterobacter cloacae incubated for 24 hrs followed by serial sub-cultivation and measured after 24 hrs by microdilution method; assay type: functional
# [20] = tested on: Candida albicans; test: Fungicidal activity against Candida albicans incubated for 72 hrs followed by serial sub-cultivation for 72 hrs and measured after 72 hrs by serial dilution method; assay type: functional
# [21] = tested on: Staphylococcus aureus; test: Antibacterial activity against Staphylococcus aureus ATCC 6538 after 24 hrs by microdilution method; assay type: functional; details: ATCC 6538, 24 h
# [22] = tested on: Trichoderma viride; test: Antifungal activity against Trichoderma viride IAM 5061 after 72 hrs by serial dilution method; assay type: functional; details: IAM 5061, 72 h
# [23] = tested on: Aspergillus versicolor; test: Antifungal activity against Aspergillus versicolor ATCC 11730 after 72 hrs by serial dilution method; assay type: functional; details: ATCC 11730, 72 h
# [24] = tested on: Bacillus cereus; test: Antibacterial activity against Bacillus cereus after 24 hrs by microdilution method; assay type: functional
# [25] = tested on: Salmonella typhimurium; test: Antibacterial activity against Salmonella typhimurium ATCC 13311 after 24 hrs by microdilution method; assay type: functional, Salmonella enterica subsp. enterica serovar Typhimurium; details: Salmonella enterica, ATCC 13311, 24 h
# [26] = tested on: Enterobacter cloacae; test: Antibacterial activity against Enterobacter cloacae after 24 hrs by microdilution method; assay type: functional
# [27] = tested on: Escherichia coli; test: Antibacterial activity against Escherichia coli ATCC 35210 after 24 hrs by microdilution method; assay type: functional; details: ATCC 35210, 24 h
# [28] = tested on: Escherichia coli; test: Bactericidal activity against Escherichia coli ATCC 35210 incubated for 24 hrs followed by serial sub-cultivation and measured after 24 hrs by microdilution method; assay type: functional
# [29] = tested on: Trichoderma viride; test: Fungicidal activity against Trichoderma viride IAM 5061 incubated for 72 hrs followed by serial sub-cultivation for 72 hrs and measured after 72 hrs by serial dilution method; assay type: functional
# [30] = tested on: Staphylococcus aureus; test: Bactericidal activity against Staphylococcus aureus ATCC 6538 incubated for 24 hrs followed by serial sub-cultivation and measured after 24 hrs by microdilution method; assay type: functional
# [31] = tested on: Candida albicans; test: Antifungal activity against Candida albicans after 72 hrs by serial dilution method; assay type: functional
# [32] = tested on: Listeria monocytogenes; test: Antibacterial activity against Listeria monocytogenes NCTC 7973 after 24 hrs by microdilution method; assay type: functional; details: NCTC 7973, 24 h
MIC [1] [µM],MIC [2] [µM],MIC [7] [µM],MIC [10] [µM],MIC [12] [µM],MIC [14] [µM],MIC [16] [µM],Structure (SMILES),MFC99.5 [3] [×10⁻² umol/ml],MBC99.5 [4] [×10⁻² umol/ml],MBC99.5 [5] [×10⁻² umol/ml],MFC99.5 [6] [×10⁻² umol/ml],MFC99.5 [8] [×10⁻² umol/ml],MBC99.5 [9] [×10⁻² umol/ml],MFC99.5 [11] [×10⁻² umol/ml],MBC99.5 [13] [×10⁻² umol/ml],MBC99.5 [15] [×10⁻² umol/ml],MFC99.5 [17] [×10⁻² umol/ml],MFC99.5 [18] [×10⁻² umol/ml],MBC99.5 [19] [×10⁻² umol/ml],MFC99.5 [20] [×10⁻² umol/ml],also measured
120,240,240,60,30,60,60,O=C(N/N=C/c1c(F)cccc1Cl)c1nsc2ccccc12,6,48,24,12,30,12,12,24,48,12,12,12,30,MIC [21]: 60 µM; MIC [22]: 240 µM; MIC [23]: 60 µM; MIC [24]: 120 µM; MIC [25]: 60 µM; MIC [26]: 60 µM; MIC [27]: 120 µM; MBC99.5 [28]: 24 ×10⁻² umol/ml; MFC99.5 [29]: 48 ×10⁻² umol/ml; MBC99.5 [30]: 12 ×10⁻² umol/ml; MIC [31]: 240 µM; MIC [32]: 240 µM
116,482,116,121,91,121,181,O=C(Cc1nsc2ccccc12)N/N=C/c1c(F)cccc1F,12.1,23.2,23.2,12.1,96.4,23.2,24.1,23.2,23.2,24.1,24.1,23.2,24.1,MIC [21]: 29 µM; MIC [22]: 61 µM; MIC [23]: 91 µM; MIC [24]: 116 µM; MIC [25]: 116 µM; MIC [26]: 116 µM; MIC [27]: 116 µM; MBC99.5 [28]: 23.2 ×10⁻² umol/ml; MFC99.5 [29]: 12.1 ×10⁻² umol/ml; MBC99.5 [30]: 23.2 ×10⁻² umol/ml; MIC [31]: 121 µM; MIC [32]: 116 µM
116,232,232,232,464,464,232,O=C(N/N=C/c1c(Cl)cccc1Cl)c1nsc2ccccc12,58,46.4,23.2,58,46.4,23.2,58,23.2,46.4,46.4,46.4,23.2,46.4,MIC [21]: 58 µM; MIC [22]: 116 µM; MIC [23]: 464 µM; MIC [24]: 116 µM; MIC [25]: 116 µM; MIC [26]: 116 µM; MIC [27]: 116 µM; MBC99.5 [28]: 23.2 ×10⁻² umol/ml; MFC99.5 [29]: 46.4 ×10⁻² umol/ml; MBC99.5 [30]: 17.6 ×10⁻² umol/ml; MIC [31]: 232 µM; MIC [32]: 232 µM
252,15.8,252,15.8,31.5,252,126,O=C(N/N=C/c1c(F)cccc1F)c1nsc2ccccc12,12.6,50.4,25.2,12.6,25.2,6.3,50.4,50.4,50.4,25.2,12.6,25.2,50.4,MIC [21]: 126 µM; MIC [22]: 126 µM; MIC [23]: 15.8 µM; MIC [24]: 126 µM; MIC [25]: 31.5 µM; MIC [26]: 63 µM; MIC [27]: 252 µM; MBC99.5 [28]: 50.4 ×10⁻² umol/ml; MFC99.5 [29]: 25.2 ×10⁻² umol/ml; MBC99.5 [30]: 25.2 ×10⁻² umol/ml; MIC [31]: 252 µM; MIC [32]: 252 µM
